Reference: US20230136299A1, “TREATMENT OF LIVER FAILURE” (HEPYX LIMITED, priority 2020, published 2023)
Several values for one entry are separate records, joined by “and”; a condition that tells them apart may be missing. Identical values can stand only once. Entries after “also recorded” stand apart in the source; their conditions may differ.

How the values were obtained:
[1] = tested on: C57B/6 mice with CCL4 + GalN induced ACLF; assay: CCL4 + galactosamine (GalN) non-inflammatory ACLF mouse model; conditions: for RIPK3 expression (necroptotic cell death) / liver cell death (TUNEL): value (range)
Description: C57B/6 mice were gavaged for 6-weeks with carbon tetrachloride (CC14) 0.5 ml/ml to induce chronic liver injury (n=8 per group). Thereafter, galactosamine (GalN) (1000 mg/kg) was administered to induce a non-inflammatory liver injury and treatment with the RIPK1 inhibitor, RIPA56 3 mg/kg i.p. was initiated every 12-hrs.

[2] = tested on: rat ACLF model (BDL + LPS); assay: BDL + LPS rat ACLF model; conditions: LPS after BDL, TAK-242 10 mg/kg i.p. before and after LPS
[3] = tested on: PMA-activated THP1 macrophage-like cells; assay: THP1 response to LPS after G-CSF stimulation, PMA activated macrophages; format: cell-based; conditions: for IL-6 mRNA expression / IL-1b expression: LPS 10 ng/mL ± G-CSF 100 ng/mL, TAK-242 200 nM, compared to unstimulated cells; for IL-6 mRNA expression: 3-hr after LPS
Description: (§1) Densitometry was measured by using ImageJ and values are depicted as mean pixel density. After sample pooling no statistical comparison could be applied. H) Liver aSMA expression (CC14-LPS 24 hours treatment model) Liver sections were stained for aSMA (n=4 per group) as a marker of stellate cell activation. LPS increased the aSMA positive area from 1.4% ± 0.6 in CC14 animals to 8.6% ± 1.9 (p<0.001) and 9% ± 4.1 (p<0.001) when combined with G-CSF. […] Image J was used for image quantification and group comparison was performed by one-way ANOVA and post-hoc Tukey’s multiple comparison. I) THP1 response to LPS after G-CSF stimulation. THP1 were PMA activated into a macrophage like phenotype and stimulated with LPS (10 ng/mL) ± G-CSF (100 ng/mL) (2 batches in 2 replicates). Treatment was performed with TAK-242 200 nM in two of the groups. RNA extraction to measure cytokine response was performed 3-hr after LPS incubation. LPS induced an upregulation of IL-6 mRNA expression 60.2-fold in THP1 monocytes and 6.2-fold in macrophages which was enhanced by pre-incubation with G-CSF (monocytes 71-fold, macrophages 6.7-fold). TAK-242 reduced IL-6 mRNA expression compared to unstimulated cells to 5.1-fold in monocytes and 2.8-fold in macrophages resembling biological significance. […] G-CSF exaggerated the IL-1b expression 2.5-fold compared to unstimulated cells whereas it remained unchanged in macrophages (1.1-fold compared to unstimulated cells). TAK-242 decreased the IL-1b response in both cell lines (monocytes 1.3-fold and macrophages 0.7-fold compared to unstimulated cells). J) Proliferative effect of G-CSF after CC14. […] G-CSF (250 µg/kg, s.c.) was injected without previous LPS administration once daily for 5-days. Results were compared to groups administered LPS. […] Ki67 expression as a marker of hepatocyte division increased from 0.6% ± 0.2 after CC14 + LPS + G-CSF to 4.1% ± 2.9 (p<0.001) after CC14 + G-CSF. Image J was used for image quantification and group comparison was performed by one-way ANOVA and post-hoc Tukey’s multiple comparison.
(§2) Monocytes and macrophages are major source of cytokine release in liver disease. The inventors therefore tested in vitro, to what extent LPS and G-CSF modulate the cytokine response in PMA activated and native THP1 cells. […] These in vitro findings are in keeping with hepatic IL6 levels, which increased 2.8-fold in G-CSF-treated animals (FIG. 4D). […] The data help to explain the reduction in markers of organ injury in the ACLF animals treated with G-CSF/TAK-242.

THP1 monocytes = assay: THP1 response to LPS after G-CSF stimulation, monocytes; format: cell-based; conditions: for IL-6 mRNA expression / IL-1b expression: LPS 10 ng/mL ± G-CSF 100 ng/mL, TAK-242 200 nM, compared to unstimulated cells; for IL-6 mRNA expression: 3-hr after LPS
Description: as §1, §2

[4] = tested on: C57B/6 mice with CCL4 + LPS induced ACLF; assay: CCL4 + LPS ACLF mouse model; format: in vivo; conditions: for proliferating (Cyclin A positive) hepatocytes: 5 days treatment; for CyclinA2/TUNEL ratio: CCl4-LPS 24-hr treatment model
Description: Thereafter injection of LPS (Klebsiella, 4 mg/kg, i.p.) served as a second hit to induce organ injury. […] CCL4- Carbontetrachloride; G-CSF - granulocyte colony stimulating factor.
Thereafter injection of LPS (Klebsiella, 4 mg/kg, i.p.) served as a second hit to induce organ injury.
Thereafter injection of LPS (Klebsiella, 4 mg/kg, i.p.) served as a second hit to induce organ injury. […] It majorly regulated the transition from G2 to M phase. […] E) BCL2 is the effector molecule of the STAT3 pathway which carries anti-apoptotic and antibacterial properties. […] Image J was used for image quantification and group comparison was performed by one-way ANOVA and post-hoc Tukey’s multiple comparison mRNA data is delineated as ddCt value. Western blots were performed with protein lysates pooled from all animals per group. G) Liver protein expression of markers of inflammation, cell death and regeneration/senescence (CC14-LPS 24 h treatment model). Liver lysates from 4 randomly selected animals per group were pooled and applied onto one profiler membrane.
Second, due to the conflicting data concerning the therapeutic benefit of G-CSF the present inventors performed pre-clinical studies in well-established rodent models of ACLF in order to clarify the effect of stem cell mobilisation. C57BL/6 Mice were gavaged with carbon tetrachloride (CCL4) for 6 weeks to induce liver fibrosis and subsequently injected with lipopolysaccharide (LPS) to induce tissue injury and organ failure. One hour after LPS injection mice were treated with G-CSF subcutaneously 250 µg/kg once daily for 5 consecutive days (FIG. 1A).
The inventors then tested whether TLR4 inhibition (e.g. TAK-242) rescues from G-CSF driven injury and inflammation in preclinical models of ACLF.

[5] = tested on: C57B/6 mice with CCL4 induced chronic liver injury; assay: G-CSF after CCL4 without LPS (chronic liver injury mice); format: in vivo; conditions: CCl4 + G-CSF 250 µg/kg s.c. once daily for 5-days, no LPS
Description: Densitometry was measured by using ImageJ and values are depicted as mean pixel density. After sample pooling no statistical comparison could be applied. H) Liver aSMA expression (CC14-LPS 24 hours treatment model) Liver sections were stained for aSMA (n=4 per group) as a marker of stellate cell activation. LPS increased the aSMA positive area from 1.4% ± 0.6 in CC14 animals to 8.6% ± 1.9 (p<0.001) and 9% ± 4.1 (p<0.001) when combined with G-CSF. […] Image J was used for image quantification and group comparison was performed by one-way ANOVA and post-hoc Tukey’s multiple comparison. I) THP1 response to LPS after G-CSF stimulation. THP1 were PMA activated into a macrophage like phenotype and stimulated with LPS (10 ng/mL) ± G-CSF (100 ng/mL) (2 batches in 2 replicates). Treatment was performed with TAK-242 200 nM in two of the groups. RNA extraction to measure cytokine response was performed 3-hr after LPS incubation. LPS induced an upregulation of IL-6 mRNA expression 60.2-fold in THP1 monocytes and 6.2-fold in macrophages which was enhanced by pre-incubation with G-CSF (monocytes 71-fold, macrophages 6.7-fold). […] Image J was used for image quantification and group comparison was performed by one-way ANOVA and post-hoc Tukey’s multiple comparison.

patients with ACLF [6] = assay: GRAFT multicentre randomised controlled trial of G-CSF in ACLF (NCT02669680); format: in vivo, human
From the text: The pathobiology of ACLF is characterised by immunopathological features comprising two opposing mechanisms as the main drivers of organ failure which are active concurrently. The first is systemic and hepatic inflammation triggered by pathogen-associated molecular patterns (PAMPs) and cell death molecules (damage associated molecular patterns (DAMPs)) mediated through the TLR4 receptor pathway. PAMPs derive through translocation of gut-derived bacteria and bacterial products (such as lipopolysaccharide-LPS) to the liver via portal the portal vein, promoting pro-inflammatory responses through the toll-like 4 (TLR4) -dependent canonical inflammasome on immune cells, as well as the TLR4-independent non-canonical inflammasome in hepatocytes (3). […] The second is a prolonged organ injury, immune cell paralysis and failure of regeneration facilitating prolonged organ dysfunction and secondary infections culminating into a vicious cycle leading to multi-organ failure and death. Stem cells and other regulatory immune cells are known to modulate immune activation thereby modulating inflammatory reactions and supporting tissue repair capacities (5). Granulocyte colony stimulating factor (G-CSF) mobilizes stem and immune cells and is perceived to carry immunomodulatory and pro-regenerative properties. […]

patients with ACLF [7] = conditions: from 30% without G-CSF; cited from earlier work
[8] = RIPA56 3 mg/kg i.p. every 12-hrs, n=3
[9] = RIPA56 3 mg/kg i.p. every 12-hrs, p<0.001 compared to CCl4 + GalN, 3 mg/kg
[10] = LPS +/- G-CSF, TAK-242 10 mg/kg i.p. twice for 24 h, 10 mg/kg

CCC(C)(C)C(=O)N(O)Cc1ccccc1 [RIPA56]
Cyclin A2 (hepatocyte proliferation) [1, 8]: 0.03% ± 0.1
Ki67 (hepatocyte proliferation) [1, 8]: 0.2% ± 0.2
GalN-induced cell death (TUNEL) [1, 9]: effectively prevented; also recorded: reduced
RIPK3 expression [1, 9]: effectively prevented; also recorded: reduced

CCOC(=O)C1=CCCC[C@H]1S(=O)(=O)Nc1ccc(F)cc1Cl [TAK-242, Ethyl (6R)-6-[N-(2-chloro-4-fluorophenyl)sulfamoyl]cyclohex-1-ene-1-carboxylate]
Cyclin A2 (proliferating hepatocytes) ([1]; 48 hours treatment): 1.9% ± 1.6
Ki67 (proliferating hepatocytes) ([1]; 48 hours treatment): 3% ± 2.1
p21 (hepatocytes in cell cycle arrest) ([1]; 48 hours treatment): 7.1% ± 4.5
RIPK3 expression (necroptotic cell death) ([1]; 48 hours treatment): 1.7% (range 0.9-2.1)
liver cell death (TUNEL) ([1]; 48 hours treatment): 1.4% (range 0.4-3.3)
CyclinA2/TUNEL ratio ([1]; GalN 48-hr treatment): 0.9
degree of proliferating (Cyclin A2, Ki67) and senescent (p21) hepatocytes ([1]; mouse, in vivo): did not alter; also recorded: maintained
ALT levels ([2]; 10 mg/kg): improving plasma ALT levels; also recorded: significantly reduced
liver cell death (TUNEL) ([2]; recAP pre-treatment 1000 U/kg i.p. over 4 days): effective in reducing cell death in the liver; also recorded: significantly reduced
IL-6 mRNA expression [3]: 2.8 fold
IL-1b expression [3]: 0.7 fold
cytokine response to LPS alone or in combination with G-CSF ([3]; in the presence of TAK-242): completely prevented
IL-6 mRNA expression (THP1 monocytes): 5.1 fold
IL-1b expression (THP1 monocytes): 1.3 fold
cytokine response to LPS alone or in combination with G-CSF (THP1 monocytes; in the presence of TAK-242): completely prevented
proliferating (Cyclin A positive) hepatocytes [4]: not proliferating
proliferating (Cyclin A positive) hepatocytes ([4]; listed as TAK242): did not enhance
CyclinA2/TUNEL ratio [4]: 1.4
ALT levels [4, 10]: reduction in plasma ALT levels; also recorded: prevented
liver cell death (TUNEL) [4, 10]: reduction in liver cell death; also recorded: prevented
CDKN2A (p16) mRNA level ([4]; after LPS injection): decreased in a stepwise manner
stellate cells activation (aSMA expression) ([4]; after LPS injection): significantly abrogated
G-CSF-related death ([4]; mouse, in vivo): protected from G-CSF-related death
hepatic cytokine expression (mRNA) (IL6, TNFa) ([4]; mouse, in vivo): reduced
liver protein expression of vascular regeneration and regeneration markers (angiopoietin 2, proliferin, PDGF, IL-22, Flt3-ligand, IGFBP-1) ([4]; proteome profiler, pooled liver lysates, 24-hours): reduced

B1: G-CSF: Granulocyte colony stimulating factor, a glycoprotein that mobilizes stem and immune cells; recombinant murine G-CSF used in mice (protein, UniProt P09920 31-208, looked up)
Granulocyte …: VPLVTVSALPPSLPLPRSFLLKSLEQVRKIQASGSVLLEQLCATYKLCHPEELVLLGHSLGIPKASLSGCSSQALQQTQCLSQLHSGLCLYQGLLQALSGISPALAPTLDLLQLDVANFATTIWQQMENLGVAPTVQPTQSAMPAFTSAFQRRAGGVLAISYLQGFLETARLALHHLA
RIPK3 expression (necroptotic cell death) ([1]; 48 hours treatment): 1.9% (range 0.9-2.5)
liver cell death (TUNEL) ([1]; 48 hours treatment): 1.2% (range 0.4-1.9)
cell death and subsequent regenerative response ([1]; mouse, in vivo): reduced cell death and the subsequent regenerative response
degree of proliferating (Cyclin A2, Ki67) and senescent (p21) hepatocytes ([1]; mouse, in vivo): reduced
Cyclin A2 expressing hepatocytes [5]: 2.1% ± 1.3
Ki67 expression (hepatocyte division) [5]: 4.1% ± 2.9
IL-6 mRNA expression [3]: 6.7 fold
IL-1b expression [3]: 1.1 fold
survival rate / mortality of patients with ACLF (patients with ACLF [6]; 163 patients, G-CSF vs standard of care, interim analysis): did not improve the survival rate; also recorded: no effect on mortality
mortality in subgroups (alcoholic hepatitis, ACLF according to the APASL criteria) (patients with ACLF [6]; in vivo): tend to increased mortality; also recorded: may be deleterious
survival after 60 days (patients with ACLF [7]): 70%
IL-6 mRNA expression (THP1 monocytes): 71 fold
IL-1b expression (THP1 monocytes): 2.5 fold
liver fibrosis (Sirius Red) ([4]; 5-days G-CSF treatment): higher degree of liver fibrosis; also recorded: enhanced liver fibrosis; also recorded: pro-fibrotic effect
hepatic macrophage infiltration (F4/80+) ([4]; 5 days G-CSF treatment): persisted; also recorded: aggravated liver macrophage infiltration; also recorded: maintained macrophage infiltration
proliferating (Cyclin A positive) hepatocytes [4]: increased the number of proliferating hepatocytes significantly
Cyclin A2 expressing hepatocytes ([4]; CCl4 + LPS + G-CSF, 5 days): 1.4% ± 0.7
Ki67 expression (hepatocyte division) ([4]; CCl4 + LPS + G-CSF, 5 days): 0.6% ± 0.2
CyclinA2/TUNEL ratio [4]: 0.04
mortality ([4]; G-CSF 250 µg/kg s.c. once daily, within 48 hours after LPS injection): 50% and 66%
hepatic IL6 levels, increase ([4]; G-CSF-treated animals (FIG. 4D)): 2.8 fold
survival ([4]; after 48 hours, G-CSF 250 µg/kg s.c. +/- TAK-242 10 mg/kg i.p.): 50%
number of senescent hepatocytes ([4]; after 5 days of treatment): plummet significantly
TLR4+ liver infiltrating CD45+ cells ([4]; after G-CSF treatment (FIG. 2C)): increased
CDKN2A (p16) mRNA level ([4]; after LPS injection): decreased in a stepwise manner
aSMA positive area (stellate cell activation) ([4]; liver sections, CCl4-LPS 24 hours treatment model, n=4 per group): 9% ± 4.1
hepatic cytokine expression (mRNA) (IL6, TNFa) ([4]; mouse, in vivo): increased
number of p53 positive (senescent) hepatocytes ([4]; mouse, in vivo): reduced numerically
injury markers (such as Lipocalin/NGAL and IL-13), protein profiler ([4]; pooled liver lysates, 24 h treatment model): increased
